Test results taken from PMC4666608, “Metabolic Profiling of Chicken Embryos Exposed to Perfluorooctanoic Acid (PFOA) and Agonists to Peroxisome Proliferator-Activated Receptors” (PLoS ONE, 2015).
Where “and” joins values, the source holds several entries; their conditions need not be identical. Equal entries are not always repeated. Where two headings read alike, the source gives them in different places.

How the values were obtained:
human PPARα = system: human PPARα; design: method as in PMID 16038868; conditions: reporter cell assay; read-out: EC50, activation of transcription through human PPARα; cited from earlier work
human PPARγ = system: human PPARγ; design: method as in PMID 16038868; conditions: reporter cell assay; read-out: EC50, activation of transcription through human PPARγ; cited from earlier work
[1] = Determination of PFOA in blood plasma (UPLC-MS/MS); assay type: in vivo, Gallus gallus domesticus; conditions: E12; for concentration at 5 d: chicken, plasma, other: air sac injection in ovo
Description: (§1) Controls were injected with 20 μL vehicle only (DMSO).
Plasma was collected and stored at -70°C.
(§2) The concentration of PFOA was analyzed in liver and blood plasma from control embryos and embryos exposed to PFOA (50, 250 and 1000 μg/egg). Five individual livers from each PFOA-treated group were analyzed. Very low PFOA concentrations were anticipated in the controls and therefore the amount of tissue was increased by pooling 2–3 livers, and five such pools were analyzed. Four plasma samples (50 μL) were analyzed from each group except the group exposed to 1000 μg PFOA/egg for which three samples were analyzed. Extraction blanks were included for each batch. The analyzed amount of liver homogenate was 100 mg for controls and 50 mg for PFOA-exposed embryos. Livers were homogenized using the bead mill Bullet Blender® Storm 24 (Next Advance, Inc. New York, USA) with stainless steel beads at speed 8 for 3 min. Plasma and liver samples were spiked with 50 ng of internal standard (^13C4-PFOA, Wellington, Guelph, Canada). Five milliliters of acetonitrile (Labscan, Gliwice, Poland) was added to the samples followed by vortex mixing, sonication (20 min), and centrifugation (10 000 g, 5 min). Extraction was performed twice for livers and once for plasma. One mL of supernatant from the extracts was transferred to a tube prepared with 50 mg ENVI-Carb™ 20/400 mesh (Supelco, Bellefonte, PA, USA) and 100 μL glacial acetic acid (Sigma-Aldrich). The carbon suspension was vortex mixed and then filtrated using a 0.2-μm GHP filter (Pall, East Hills, NY, USA). Filtrate (0.4 mL) was mixed with 2 ng of the recovery standard (^13C8-PFOA, Wellington Laboratories) and 0.6 mL 2 mM ammonium acetate was added. Analysis was performed using an Acquity UPLC coupled to a Xevo-TQS MS/MS (Waters Corporation, Milford, MA, USA) as described previously. The recovery standard ^13C8-PFOA was added before injection to assess the recoveries of the internal standard ^13C4-PFOA. The recoveries ranged between 75 and 94% (average 82%) for plasma and between 64 and 119% (average 84%) for liver.

[2] = Determination of PFOA in liver (UPLC-MS/MS); assay type: in vivo, Gallus gallus domesticus; conditions: for concentration at 5 days: chicken (Gallus gallus domesticus) embryo, other: air sac injection into the egg, 1000 µg/egg; for concentration at 5 days / concentration at 5 d: liver; for concentration at 5 d: chicken, other: air sac injection in ovo
Description: as §1, §2

[3] = for Body weight, Mean ± SD / Liver-somatic index, Mean ± SD: E12; for Body weight / Liver weight / Liver-somatic index: group mean
Description: The experimental procedures in this study were approved by the Uppsala Ethical Committee for Research on Animals (Permit number C 211/12). Fertilized chicken eggs (Gallus gallus domesticus) were obtained from a local breeder (Ova Production AB, Vittinge, Sweden). The egg weights were 60 ± 4 g (mean and standard deviation). The eggs were incubated at 37.5°C and 60% relative humidity with automatic turning every six hours. The day the eggs were placed in the incubator was defined as embryonic day zero (E0). Chicken embryos were exposed to test substances by air sac injection in eggs incubated for seven days (E7). At this stage, the extraembryonic allantoic blood vessel network has grown to cover the inner shell membrane beneath the air sac and the injected substance will come in direct contact with the vascular network. The exposures were performed as follows: Unfertilized eggs and poorly developing embryos were recognized by candling and were sorted out. Eggs with embryos of normal size were collected and randomly distributed into the different treatment groups. On E7, the blunt end of each egg was wiped with alcohol and a small hole was drilled through the shell above the air sac. The dissolved test substance (20 μl) was deposited onto the inner shell membrane in the air sac and the hole was sealed with melted paraffin wax. Following injection, eggs were held horizontally and rotated for a few seconds to allow dispersal over the inner shell membrane in the air sac. Each egg was marked with a number specifying the treatment group and was placed at a random location in the incubator.
The doses were 150 μg/egg (approximately 2.5 mg/kg egg) for GW7647 and rosiglitazone and 50, 250 or 1000 μg/egg for PFOA (approximately 0.83, 4.2 and 18 mg/kg egg, respectively). Controls were injected with 20 μL vehicle only (DMSO). Due to the large number of embryos required, the experiment was divided into four replicate experiments (replicate A-D) performed the same way but on separate occasions. The number of exposed embryos was 10–15 for each treatment group and replicate.
Embryos and livers were weighed and the liver-somatic index was calculated (100 x liver weight/body weight). Livers were collected from the control group and from each of the PFOA groups for determination of PFOA concentrations. These livers were stored at -20°C and later extracted and analyzed as described below. Four females and four males from each PFOA group (except the 1000 μg/egg group) and from the control group were also randomly chosen for evaluation of signs of overt liver toxicity using liver histology (method described in S1 Methods).
The software GraphPad Prism version 5 (GraphPad Software Inc, San Diego, CA, USA) was used for univariate and bivariate statistics. Mortality rates were analyzed with Fisher’s exact test. Body weight, liver-somatic index and concentrations of plasma lipids were initially analyzed using two-way analysis of variance (two-way ANOVA) with treatment and sex (or treatment and replicate) as independent variables. […] Metabolites were selected by multivariate methods as described below and differences in concentrations (treatment groups vs control group as well as females vs males) were then tested using Student’s t-test. The results of these t-tests on metabolite concentrations were used in an exploratory way to find candidate metabolites and for that reason the p-values were not corrected for multiple comparisons.

[4] = PFOA 1000 μg/egg, five embryos from replicate A
[5] = group PFOA 1000 (1000 µg/egg), five embryos, replicate A only

For CN(CCOc1ccc(CC2SC(=O)NC2=O)cc1)c1ccccn1 (stereo not shown) [Rosiglitazone, rosiglitazone, reference compound], the EC50 (human PPARγ) is listed as 0.018 µM.

In the case of O=C(O)C(F)(F)C(F)(F)C(F)(F)C(F)(F)C(F)(F)C(F)(F)C(F)(F)F [PFOA, perfluorooctanoic acid], the “Concentration in plasma, individual embryo” value (from here on “Concentration in plasma”) ([1]; PFOA 50 µg/egg, female embryos) is reported as 2.453 µg/mL and 2.35 µg/mL, the “Concentration in plasma” value ([1]; PFOA 50 µg/egg, male embryos) is reported as 1.759 µg/mL and the “Concentration in plasma” value ([1]; PFOA 250 µg/egg, female embryos) is reported as 8.562 µg/mL. The “Concentration in plasma” value ([1]; PFOA 250 µg/egg, male embryos) was 5.531 µg/mL and 5.643 µg/mL, the “Concentration in plasma” value ([1]; PFOA 1000 µg/egg) was 17.963 µg/mL and 18.228 µg/mL and the concentration at 5 d ([1]; 50 μg/egg, 50 μg PFOA/egg on E7, read-out: Mean PFOA concentration in plasma) was 2 µg/mL. It also gave a concentration at 5 d ([1]; 50 µg/egg, PFOA 50 µg/egg, read-out: Concentration in plasma, Mean) of 2 µg/mL, a concentration at 5 d ([1]; 50 µg/egg, PFOA 50 µg/egg, read-out: Concentration in plasma, individual embryo) of 1.44 µg/mL and a concentration at 5 d ([1]; 250 μg/egg, 250 μg PFOA/egg on E7, read-out: Mean PFOA concentration in plasma) of 6.3 µg/mL. It also gave a concentration at 5 d ([1]; 250 µg/egg, PFOA 250 µg/egg, read-out: Concentration in plasma, Mean) of 6.3 µg/mL, a concentration at 5 d ([1]; 250 µg/egg, PFOA 250 µg/egg, read-out: Concentration in plasma, individual embryo) of 5.48 µg/mL and a concentration at 5 d ([1]; 1000 μg/egg, 1000 μg PFOA/egg on E7, read-out: Mean PFOA concentration in plasma) of 18 µg/mL. The concentration at 5 d ([1]; 1000 µg/egg, PFOA 1000 µg/egg, read-out: Concentration in plasma, Mean) was 17.6 µg/mL, the concentration at 5 d ([1]; 1000 µg/egg, PFOA 1000 µg/egg, read-out: Concentration in plasma, individual embryo) was 16.7 µg/mL and the Concentration in liver ([2]; PFOA 50 µg/egg, chicken embryo liver, individual embryos) was 1067 ng/g and 1343 ng/g and 1269 ng/g and 1059 ng/g. The Concentration in liver ([2]; PFOA 250 µg/egg, chicken embryo liver, individual embryos) was 3843 ng/g and 2549 ng/g and 3327 ng/g and 3144 ng/g, the Concentration in liver ([2]; PFOA 1000 µg/egg, chicken embryo liver, individual embryos) was 11372 ng/g and 14202 ng/g and 9187 ng/g and 10517 ng/g and the concentration at 5 days ([2]; PFOA 1000 µg/egg, chicken embryo liver, group mean (n=5), read-out: Concentration in liver, Mean) was 10800 ng/g. It also gave a concentration at 5 days ([2]; PFOA 1000 µg/egg, chicken embryo liver, individual embryos, read-out: Concentration in liver) of 8570 ng/g, a concentration at 5 d ([2]; 50 μg/egg, E12, 50 μg PFOA/egg on E7, read-out: Mean PFOA concentration in liver) of 1100 ng/g and a concentration at 5 d ([2]; 50 µg/egg, PFOA 50 µg/egg, chicken embryo liver, group mean (n=5), read-out: Concentration in liver, Mean) of 1180 ng/g. It also gave a concentration at 5 d ([2]; 50 µg/egg, PFOA 50 µg/egg, chicken embryo liver, individual embryos, read-out: Concentration in liver) of 1170 ng/g, a concentration at 5 d ([2]; 250 μg/egg, E12, 250 μg PFOA/egg on E7, read-out: Mean PFOA concentration in liver) of 3600 ng/g and a concentration at 5 d ([2]; 250 µg/egg, PFOA 250 µg/egg, chicken embryo liver, group mean (n=5), read-out: Concentration in liver, Mean) of 3580 ng/g. The concentration at 5 d ([2]; 250 µg/egg, PFOA 250 µg/egg, chicken embryo liver, individual embryos, read-out: Concentration in liver) was 5060 ng/g, the concentration at 5 d ([2]; 1000 μg/egg, E12, 1000 μg PFOA/egg on E7, read-out: Mean PFOA concentration in liver) was 11000 ng/g and the “Body weight, Mean ± SD” value ([3]; PFOA 50 μg/egg) was 4.2 ± 0.5 g. The “Liver-somatic index, Mean ± SD” value ([3]; PFOA 50 μg/egg) was 1.7 ± 0.1%, the “Body weight, Mean ± SD” value ([3]; PFOA 250 μg/egg) was 4.3 ± 0.4 g and the “Liver-somatic index, Mean ± SD” value ([3]; PFOA 250 μg/egg) was 1.7 ± 0.2%. For the same compound, the “Body weight, Mean ± SD” value [3, 4] was 4.6 ± 0.4 g, the “Liver-somatic index, Mean ± SD” value [3, 4] was 2.0 ± 0.2% and the Body weight ([3]; group PFOA 50 (µg/egg)) was 4.2 g. For the same compound, the Liver weight ([3]; group PFOA 50 (µg/egg)) was 70.6 mg, the Liver-somatic index ([3]; group PFOA 50 (µg/egg)) was 1.7% and the Body weight ([3]; group PFOA 250 (µg/egg)) was 4.3 g. The Liver weight ([3]; group PFOA 250 (µg/egg)) was 72.7 mg, the Liver-somatic index ([3]; group PFOA 250 (µg/egg)) was 1.7% and the Body weight [3, 5] was 4.6 g. It also gave a Liver weight [3, 5] of 91.5 mg and a Liver-somatic index [3, 5] of 2.0%.
